Legend:
[1] = biological target: T1, SLG_38120 (Sphingobium sp. SYK-6, UniProt G2IRC1); test: HPLC, E. coli cell extract; format: biochemical; settings: 100 μM substrate, 500 μM NAD+, 30 °C
T1 construct: gene feaB; coding region in pET21a(+), extract of E. coli BL21(DE3)
T1 sequence (G2IRC1 1-493): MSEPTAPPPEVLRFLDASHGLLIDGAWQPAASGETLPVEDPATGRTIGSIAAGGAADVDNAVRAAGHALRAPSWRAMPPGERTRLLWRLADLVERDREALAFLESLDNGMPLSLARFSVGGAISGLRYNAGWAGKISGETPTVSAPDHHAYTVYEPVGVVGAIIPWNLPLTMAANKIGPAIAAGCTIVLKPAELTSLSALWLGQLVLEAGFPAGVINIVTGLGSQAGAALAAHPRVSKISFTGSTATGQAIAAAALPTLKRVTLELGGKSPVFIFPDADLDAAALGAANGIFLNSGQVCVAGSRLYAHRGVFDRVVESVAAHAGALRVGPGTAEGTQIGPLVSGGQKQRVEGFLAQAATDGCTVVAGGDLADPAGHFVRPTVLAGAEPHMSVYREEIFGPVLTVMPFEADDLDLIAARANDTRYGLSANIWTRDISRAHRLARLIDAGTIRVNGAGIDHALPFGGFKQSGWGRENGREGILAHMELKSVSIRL

[2] = biological target: T2, SLG_11410 (Sphingobium sp. SYK-6, UniProt G2IPY8); test: HPLC, E. coli cell extract; format: biochemical; settings: 100 μM substrate, 500 μM NAD+, 30 °C
T2 construct: coding region in pET21a(+), extract of E. coli BL21(DE3)
T2 sequence (G2IPY8 1-498): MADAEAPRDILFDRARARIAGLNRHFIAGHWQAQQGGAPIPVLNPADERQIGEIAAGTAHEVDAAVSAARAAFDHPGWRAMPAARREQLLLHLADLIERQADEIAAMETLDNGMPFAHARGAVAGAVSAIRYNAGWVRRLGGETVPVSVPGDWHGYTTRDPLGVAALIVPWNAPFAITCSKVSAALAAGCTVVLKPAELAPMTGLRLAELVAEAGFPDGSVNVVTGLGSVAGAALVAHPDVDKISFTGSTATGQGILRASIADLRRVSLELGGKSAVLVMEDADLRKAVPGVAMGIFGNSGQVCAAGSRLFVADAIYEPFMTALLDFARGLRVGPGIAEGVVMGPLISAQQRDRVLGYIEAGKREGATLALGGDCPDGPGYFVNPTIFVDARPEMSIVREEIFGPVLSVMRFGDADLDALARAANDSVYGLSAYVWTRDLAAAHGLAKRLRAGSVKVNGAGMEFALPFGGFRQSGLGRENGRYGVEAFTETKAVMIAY

## COc1cc(C=O)cc(OC)c1O [syringaldehyde]
[1]
  specific activity: All these aromatic ALDH gene products converted SN into syringate
[2]
  specific activity: All these aromatic ALDH gene products converted SN into syringate

— PMC5353671, “A bacterial aromatic aldehyde dehydrogenase critical for the efficient catabolism of syringaldehyde” (Scientific Reports, 2017)
